Source: patent US20240043427A1 (Gilead Sciences, Inc., priority 2020, published 2024)

Tests used:
CD73 [1] = target: T1, CD73 (Homo sapiens (Human), UniProt P21589); test: MDA-MB-231 Cell Based CD73 Activity Assay; conditions: MDA-MB-231-GFP cells, RPMI medium with 10% human plasma, 200 uM AMP
Experimental: MDA-MB-231 Cell Based CD73 Activity Assay
MDA-MB-231-GFP cells were seeded in 384-well plates (Greiner 781946) at a density of 10000 cells per well in 50 μL of RPMI medium with 10% HP (human plasma). Cells were plated into assay plate with compounds pre-spotted, for an overnight compound treatment. 50 μL of 400 μM AMP (final concentration 200 μM) using a Bio-tek dispenser. Plates were incubated for 100 mins. […] The samples were run using Rapid fire.

CD73 [2] = target: T1, CD73; test: MDA-MB-231 Cell Based CD73 Activity Assay (DMEM); conditions: MDA-MB-231-GFP cells, DMEM medium with 10% human plasma, 200 uM AMP
CD73 [3] = target: T1, CD73; type: biochemical; conditions: 1 mM NaH2PO4 in enzyme buffer, CD73 0.3 nM, AMP 15 uM

T1 sequence (P21589 27-574): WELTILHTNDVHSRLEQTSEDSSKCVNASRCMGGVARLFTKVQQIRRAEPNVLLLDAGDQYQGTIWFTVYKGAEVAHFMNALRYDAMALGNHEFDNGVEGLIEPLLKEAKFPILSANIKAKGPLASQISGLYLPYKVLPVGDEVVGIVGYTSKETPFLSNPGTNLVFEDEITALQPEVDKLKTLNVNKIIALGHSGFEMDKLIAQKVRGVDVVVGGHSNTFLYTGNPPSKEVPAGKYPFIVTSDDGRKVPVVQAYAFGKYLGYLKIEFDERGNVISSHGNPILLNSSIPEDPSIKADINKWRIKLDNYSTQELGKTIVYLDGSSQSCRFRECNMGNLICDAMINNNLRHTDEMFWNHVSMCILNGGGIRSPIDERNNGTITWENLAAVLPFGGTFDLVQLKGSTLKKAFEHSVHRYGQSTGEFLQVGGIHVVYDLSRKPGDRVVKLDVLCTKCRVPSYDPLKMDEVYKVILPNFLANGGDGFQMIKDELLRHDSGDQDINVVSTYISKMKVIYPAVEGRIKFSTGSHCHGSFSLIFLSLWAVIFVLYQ

EC50 (CD73 [1]) [nM] | EC50 (CD73 [2]) [nM] | IC50 (CD73 [3]) [nM] | SMILES
16.7 | – | – | O=c1[nH]cc(-c2cc([C@H]3C[C@@H]3c3ccc(OC(F)(F)F)cc3)c3nccn3n2)c(=O)[nH]1 (mixture of isomers) [Example 48, 5-(8-((1S,2S)-2-(4-(trifluoromethoxy)phenyl)cyclopropyl)imidazo[1,2-b]pyridazin-6-yl)pyrimidine-2,4(1H,3H)-dione and 5-(8-((1R,2R)-2-(4-(trifluoromethoxy)phenyl)cyclopropyl)imidazo[1,2-b]pyridazin-6-yl)pyrimidine-2,4(1H,3H)-dione]
2.87 | 7.67 | – | N#Cc1cc([C@H]2C[C@@H]2c2cc(-c3c[nH]c(=O)[nH]c3=O)nn3ccnc23)ccc1F (mixture of isomers) [Example 64, 5-((1S,2S)-2-(6-(2,4-dioxo-1,2,3,4-tetrahydropyrimidin-5-yl)imidazo[1,2-b]pyridazin-8-yl)cyclopropyl)-2-fluorobenzonitrile and 5-((1R,2R)-2-(6-(2,4-dioxo-1,2,3,4-tetrahydropyrimidin-5-yl)imidazo[1,2-b]pyridazin-8-yl)cyclopropyl)-2-fluorobenzonitrile]
27.5 | – | – | O=c1[nH]cc(-c2cc([C@H]3C[C@@H]3c3ccc(C(F)(F)F)c(F)c3)c3nccn3n2)c(=O)[nH]1 (mixture of isomers) [Example 100, 5-(8-((1S,2S)-2-(3-fluoro-4-(trifluoromethyl)phenyl)cyclopropyl)imidazo[1,2-b]pyridazin-6-yl)pyrimidine-2,4(1H,3H)-dione and 5-(8-((1R,2R)-2-(3-fluoro-4-(trifluoromethyl)phenyl)cyclopropyl)imidazo[1,2-b]pyridazin-6-yl)pyrimidine-2,4(1H,3H)-dione]
3.25 | – | – | COc1ccccc1[C@H]1C[C@@H]1c1cc(-c2c[nH]c(=O)[nH]c2=O)nn2ccnc12 (mixture of isomers) [Example 101, 5-(8-((1S,2S)-2-(2-methoxyphenyl)cyclopropyl)imidazo[1,2-b]pyridazin-6-yl)pyrimidine-2,4(1H,3H)-dione and 5-(8-((1R,2R)-2-(2-methoxyphenyl)cyclopropyl)imidazo[1,2-b]pyridazin-6-yl)pyrimidine-2,4(1H,3H)-dione]
93.5 | – | – | O=c1[nH]cc(-c2cc([C@H]3C[C@@H]3C3CC(F)(F)C3)c3nccn3n2)c(=O)[nH]1 (mixture of isomers) [Example 106, 5-(8-((1S,2R)-2-(3,3-difluorocyclobutyl)cyclopropyl)imidazo[1,2-b]pyridazin-6-yl)pyrimidine-2,4(1H,3H)-dione and 5-(8-((1R,2S)-2-(3,3-difluorocyclobutyl)cyclopropyl)imidazo[1,2-b]pyridazin-6-yl)pyrimidine-2,4(1H,3H)-dione]
55 | – | – | O=c1[nH]cc(-c2cc([C@H]3C[C@@H]3C(F)(F)F)c3nccn3n2)c(=O)[nH]1 (mixture of isomers) [Example 107, 5-(8-((1S,2S)-2-(trifluoromethyl)cyclopropyl)imidazo[1,2-b]pyridazin-6-yl)pyrimidine-2,4(1H,3H)-dione and 5-(8-((1R,2R)-2-(trifluoromethyl)cyclopropyl)imidazo[1,2-b]pyridazin-6-yl)pyrimidine-2,4(1H,3H)-dione]
23.8 | – | – | O=c1[nH]cc(-c2cc([C@H]3C[C@]3(F)c3ccccc3)c3nccn3n2)c(=O)[nH]1 (mixture of isomers) [Example 108, 5-(8-((1R,2R)-2-fluoro-2-phenylcyclopropyl)imidazo[1,2-b]pyridazin-6-yl)pyrimidine-2,4(1H,3H)-dione and 5-(8-((1S,2S)-2-fluoro-2-phenylcyclopropyl)imidazo[1,2-b]pyridazin-6-yl)pyrimidine-2,4(1H,3H)-dione]
13.4 | 28.4 | – | O=c1[nH]cc(-c2cc(N3C[C@@H](F)[C@@H](F)C3)c3nccn3n2)c(=O)[nH]1 [Example 77, 5-[8-[(3S,4R)-3,4-difluoropyrrolidin-1-yl]imidazo[1,2-b]pyridazin-6-yl]-1H-pyrimidine-2,4-dione and 5-[8-[(3R,4S)-3,4-difluoropyrrolidin-1-yl]imidazo[1,2-b]pyridazin-6-yl]-1H-pyrimidine-2,4-dione]
– | 6.21 | 3.3 | O=c1[nH]cc(-c2cc([C@H]3C[C@@H]3c3ccc4c(c3)c(=O)ccn4CC(F)(F)F)c3nccn3n2)c(=O)[nH]1 [Example 708, 5-(8-((1S,2S)-2-(4-oxo-1-(2,2,2-trifluoroethyl)-1,4-dihydroquinolin-6-yl)cyclopropyl)imidazo[1,2-b]pyridazin-6-yl)pyrimidine-2,4(1H,3H)-dione]
– | 0.4 | 1.24 | O=c1[nH]cc(-c2cc([C@H]3C[C@@H]3c3ccc4nccc(OCC(F)(F)F)c4c3)c3nccn3n2)c(=O)[nH]1 [Example 709, 5-(8-((1S,2S)-2-(4-(2,2,2-trifluoroethoxy)quinolin-6-yl)cyclopropyl)imidazo[1,2-b]pyridazin-6-yl)pyrimidine-2,4(1H,3H)-dione]
– | 4.06 | 1.43 | O=c1[nH]cc(-c2cc([C@H]3C[C@@H]3c3ccc4cncc(OCC(F)(F)F)c4c3)c3nccn3n2)c(=O)[nH]1 [Example 710, 5-(8-((1S,2S)-2-(4-(2,2,2-trifluoroethoxy)isoquinolin-6-yl)cyclopropyl)imidazo[1,2-b]pyridazin-6-yl)pyrimidine-2,4(1H,3H)-dione]
– | 0.19 | 0.7 | Cc1cc([C@H]2C[C@@H]2c2cc(-c3c[nH]c(=O)[nH]c3=O)nn3ccnc23)cc2c1cnn2CC(F)(F)F [Example 714, 5-(8-((1S,2S)-2-(4-methyl-1-(2,2,2-trifluoroethyl)-1H-indazol-6-yl)cyclopropyl)imidazo[1,2-b]pyridazin-6-yl)pyrimidine-2,4(1H,3H)-dione]
– | 0.32 | 1.42 | O=C1N(CC(F)(F)F)c2cc([C@H]3C[C@@H]3c3cc(-c4c[nH]c(=O)[nH]c4=O)nc4ccnn34)ccc2C12CC2 [Example 715, 5-(7-((1S,2S)-2-(2′-oxo-1′-(2,2,2-trifluoroethyl)spiro[cyclopropane-1,3′-indolin]-6′-yl)cyclopropyl)pyrazolo[1,5-a]pyrimidin-5-yl)pyrimidine-2,4(1H,3H)-dione]
– | 0.28 | 0.35 | O=c1[nH]cc(-c2cc([C@H]3C[C@@H]3c3ccc4cnn(CC(F)(F)F)c4c3)n3ncc(F)c3n2)c(=O)[nH]1 [Example 716, 5-(3-fluoro-7-((1S,2S)-2-(1-(2,2,2-trifluoroethyl)-1H-indazol-6-yl)cyclopropyl)pyrazolo[1,5-a]pyrimidin-5-yl)pyrimidine-2,4(1H,3H)-dione]
– | 0.26 | 0.69 | O=c1[nH]cc(-c2cc([C@H]3C[C@@H]3c3cnc4c(F)nn(CC(F)(F)F)c4c3)c3nccn3n2)c(=O)[nH]1 [Example 717, 5-[8-[(1S,2S)-2-[3-fluoro-1-(2,2,2-trifluoroethyl)pyrazolo[4,3-b]pyridin-6-yl]cyclopropyl]imidazo[1,2-b]pyridazin-6-yl]-1H-pyrimidine-2,4-dione]
– | 0.46 | 0.51 | O=c1[nH]cc(-c2cc([C@H]3C[C@@H]3c3cnc4c(F)nn(CC(F)(F)F)c4c3)c3ncc(Cl)n3n2)c(=O)[nH]1 [Example 719, 5-[3-chloro-8-[(1S,2S)-2-[3-fluoro-1-(2,2,2-trifluoroethyl)pyrazolo[4,3-b]pyridin-6-yl]cyclopropyl]imidazo[1,2-b]pyridazin-6-yl]-1H-pyrimidine-2,4-dione]
– | 0.32 | 0.77 | O=c1[nH]cc(-c2cc([C@H]3C[C@@H]3c3ccc4c(F)nn(CC(F)(F)F)c4c3)c3ncc(Cl)n3n2)c(=O)[nH]1 [Example 721, 5-[3-chloro-8-[(1S,2S)-2-[3-fluoro-1-(2,2,2-trifluoroethyl)indazol-6-yl]cyclopropyl]imidazo[1,2-b]pyridazin-6-yl]-1H-pyrimidine-2,4-dione]
– | 0.58 | 1.1 | CC1(C)C(=O)N(CC(F)(F)F)c2cc([C@H]3C[C@@H]3c3cc(-c4c[nH]c(=O)[nH]c4=O)nn4c(Cl)cnc34)ccc21 [Example 722, 5-[3-chloro-8-[(1S,2S)-2-[3,3-dimethyl-2-oxo-1-(2,2,2-trifluoroethyl)indolin-6-yl]cyclopropyl]imidazo[1,2-b]pyridazin-6-yl]-1H-pyrimidine-2,4-dione]
– | 1.04 | 2.75 | CC1(C)C(=O)N(CC(F)(F)F)c2cc([C@H]3C[C@@H]3c3cc(-c4c[nH]c(=O)[nH]c4=O)nn4c(F)cnc34)cnc21 [Example 723, 5-[8-[(1S,2S)-2-[3,3-dimethyl-2-oxo-1-(2,2,2-trifluoroethyl)pyrrolo[3,2-b]pyridin-6-yl]cyclopropyl]-3-fluoro-imidazo[1,2-b]pyridazin-6-yl]-1H-pyrimidine-2,4-dione]
– | 0.69 | 0.62 | O=c1[nH]cc(-c2cc(N3C[C@H](Oc4ccc(F)c(C(F)F)c4)C(F)(F)C3)c3nccn3n2)c(=O)[nH]1 [Example 745, (S)-5-(8-(4-(3-(difluoromethyl)-4-fluorophenoxy)-3,3-difluoropyrrolidin-1-yl)imidazo[1,2-b]pyridazin-6-yl)pyrimidine-2,4(1H,3H)-dione]
